Patent publication US7666611B2, “Lysophosphatidic acid receptor” (Japan Science and Technology Agency, priority 2003, dated 2010)
Entries after “also recorded” stand apart in the source; their conditions may differ.

Tests used:
[1] = biological target: T1, p2y9 (Homo sapiens, UniProt Q99677); assay: Intracellular calcium increase in four CHO clones stably expressing p2y9 (Fura-2); assay type: cell-based; conditions: p2y9 clones vs negative control, FIG. 15
T1 construct: expressed in transfected cells
Experimental: Then the investigation with respect to CHO clone has been carried out. Experiment of calcium incorporation was conducted in four independent CHO clones, #01, #09, #15 and #20, stably expressing p2y9. […] As a negative control, CHO cells which acquired neomycin resistance by transfected only with pCXN2.1 vector were used.
Four types of CHO clones, #01, #09, #15 and #20, stably expressing p2y9 were incubated for 24 hours in the medium of Ham's F-12 supplemented with 0.1% BSA in replacement of Ham's F-12 supplemented with 10% fetal bovine serum. The cells were then suspended in HEPES-Tyrode's buffer (140 mM NaCl, 2.7 mM KCl, 1 mM CaCl2, 12 mM NaHCO3, 5.6 mM D-glucose, 0.49 mM MgCl2, 0.37 mM NaH2PO4, and 25 mM HEPES-NaOH (pH 7.4)) containing 3 μM Fura-2 (calcium indicator) and 0.01% Cremophor EL. Cells were incubated at 37° C. for 1 hour for incorporation of Fura-2. Cells were then resuspended in HEPES-Tyrode's buffer in order to achieve a cell density of 1×10^6 cells/ml. The changes in intracellular concentrations with addition of various concentrations of LPAs were monitored by using CAF-100 spectrofluorometer (Jasco, Tokyo, Japan). As a negative control, CHO cells which acquired neomycin resistance by transfected only with pCXN2.1 vector were used.

[2] = tested on: ATP receptors endogenously expressed in CHO cells; assay: ATP positive control, intracellular calcium change in CHO clones; assay type: cell-based; conditions: ATP 1 μM, 10 μM and 100 μM
Experimental: Over 200 lipids (Lipid Library; BIOMOL) and nucleotides were screened using CHO clones of respective receptors by monitoring changes in intracellular calcium concentrations. As positive controls for the screenings, ATP with concentrations of 1 μM, 10 μM and 100 μM were used.
CHO clones of four individual receptors such as GPR34, p2y5, p2y9 and p2y10 were seeded respectively in three 96-well plates at a density of 4×10^4 cells/well. On the following day, cells were loaded with 4 μM of Fluo-3 (calcium indicator) and incubated at 37° C. for 1 hour for incorporation of Fluo-3. Cells were then reacted with individual lipids (1 to 10 μM) contained in the Lipid Library of BIOMOL comprising over 200 kinds of lipid molecules and 17 nucleotides (1 to 100 μM) such as ATP, then time course kinetics of intracellular calcium mobilization was monitored with FLEXstation of Molecular Devices.
This enabled to confirm the relevance of the experiment.

T1 sequence (Q99677 whole entry): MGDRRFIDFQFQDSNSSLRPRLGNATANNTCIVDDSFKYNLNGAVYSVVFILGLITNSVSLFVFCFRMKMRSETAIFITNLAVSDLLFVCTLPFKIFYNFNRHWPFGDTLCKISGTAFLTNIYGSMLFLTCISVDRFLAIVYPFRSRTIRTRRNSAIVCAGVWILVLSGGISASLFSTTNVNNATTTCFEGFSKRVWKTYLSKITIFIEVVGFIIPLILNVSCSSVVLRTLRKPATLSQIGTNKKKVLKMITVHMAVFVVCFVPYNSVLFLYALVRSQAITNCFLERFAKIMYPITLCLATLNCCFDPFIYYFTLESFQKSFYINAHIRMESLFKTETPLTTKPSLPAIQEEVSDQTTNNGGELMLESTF

For Nc1ncnc2c1ncn2[C@@H]1O[C@H](COP(=O)(O)OP(=O)(O)OP(=O)(O)O)[C@@H](O)[C@H]1O [ATP], the “increase in intracellular calcium concentration” value ([1]; ATP 10 μM) was “no significant difference; also recorded: no significant changes” and the “change in intracellular calcium concentration” value [2] was “remarkable change in intracellular calcium concentration beyond the measurable range; also recorded: changes in calcium concentration beyond the measurable range”.

platelet activating factor [PAF] was tested, and the “increase in intracellular calcium concentration” value ([1]; PAF 1 μM) was “no significant difference; also recorded: no significant changes”.

In the case of thrombin, the “increase in intracellular calcium concentration” value ([1]; thrombin 0.1 NIH units/ml) is reported as “no significant difference; also recorded: no significant changes”.
